Where a name gives a salt, the structure may show the parent alone.
Legend:
[1] = tested on: clinically isolated methicillin resistant Staphylococcus aureus; assay: MIC against clinically isolated methicillin resistant Staphylococcus aureus; type: cell-based; settings: 54 strains
Procedure: The compounds (A) and (J) of the present invention and the known compound (X) were dissolved in 0.1 N aqueous sodium hydroxide, and the known compound (Y) in sterilized distilled water, to prepare a solution of 5000 μg/ml in concentration each. The above solutions were then diluted with sterilized distilled water to prepare a standard solution with a concentration of the test compound: 1000 μg/ml each. The test was carried out by a method appointed by Japan Society of Chemotherapy (ibidem) to measure minimum inhibitory concentration (MIC) against 54 strains of clinically isolated methicillin resistant Staphylococcus aureus, from which there were calculated a range of MIC (MICrange) of the test compound against these resistant strains, a minimum concentration for inhibiting the growth of the strains by 50% (MIC50) and a minimum concentration for inhibiting the growth of the strains by 90% (MIC90).

[2] = tested on: Morganella morganii IFO 3848; assay: Antibacterial activity (MIC), Morganella morganii IFO 3848; type: cell-based; settings: Morganella morganii, IFO3848, Morganella morganii IFO 3848, Gram -; read-out: Minimum inhibitory concentration (MIC)
Procedure: (§1) The compounds of the present invention (A, C, D, E, F, G, H, I, J, L, O and P) and the known compound (X) as reference were dissolved in 0.1 N aqueous sodium hydroxide to prepare a solution of 5000 μg/ml in concentration. The compounds of the present invention (B, K, M and N) and the known compound (Y) were dissolved in sterilized distilled water to prepare a solution of 5000 μg/ml in concentration. Each solution was diluted with sterilized distilled water to prepare a standard solution with a concentration of each test compound: 1000 μg/ml. The test was carried out by a method as appointed by Japan Society of Chemotherapy [cf. Chemotherapy, 29, 76-79 (1981)(TOKYO)].

[3] = tested on: Pseudomonas aeruginosa NCTC 10490; assay: Antibacterial activity (MIC), P. aeruginosa NCTC 10490; type: cell-based; settings: Pseudomonas aeruginosa, NCTC10490, Pseudomonas aeruginosa NCTC 10490, Gram -; read-out: Minimum inhibitory concentration (MIC)
Procedure: as §1

[4] = tested on: Enterobacter aerogenes ATCC 13048; assay: Antibacterial activity (MIC), Enterobacter aerogenes ATCC 13048; type: cell-based; settings: Klebsiella aerogenes, ATCC13048; Enterobacter aerogenes ATCC 13048, Gram -; read-out: Minimum inhibitory concentration (MIC)
Procedure: as §1

[5] = tested on: Staphylococcus aureus IID 803; assay: Effect on treatment of general infectious disease, S. aureus IID 803 (Experiment 3); type: in vivo, ddY male mice infected with Staphylococcus aureus; settings: IID803, 168 h, oral, 1 h after i.p. infection, 5.0×10^7 CFU/mouse, survival after one week
Procedure: Staphylococcus aureus IID 803 (5.0×10^7 CFU/mouse)
(§2) The test microorganisms were subjected to standing culture in Trypto-Soya Agar "Nissui" (made by Nissui Seiyaku K.K., Japan) at 37° C. for 16 to 18 hours. The culture was then diluted with PBS (Dulbecco's phosphate buffered saline) and mixed with an equivalent amount of 10% (w/v) Mucin (BACTO MUCIN BACTERIOLOGICAL, made by Difco Co.) to prepare a microorganism solution. The thus prepared microorganism solution (0.5 ml each) was intraperitoneally inoculated to ddY male mice (5 weeks age, weighing 25-28 g, 5 mice in each group), to infect the animals. One hour after the infection, the compound (A) or (J) of the present invention or the known compound (X) suspended in 1% (w/v) aqueous gum arabic or the known compound (Y) dissolved in sterilized distilled water was orally adiministered to mice.
(§3) The mice were daily observed for one week, and from the survival number of mice after one week, the 50% effective dose (ED50) was calculated by Weil method.

Proteus vulgaris OX-19 = assay: Antibacterial activity (MIC), Proteus vulgaris OX-19; type: cell-based; settings: OX19; Proteus vulgaris OX-19, Gram -; read-out: Minimum inhibitory concentration (MIC)
Procedure: as §1

[6] = tested on: Staphylococcus aureus IID 803; assay: Antibacterial activity (MIC), S. aureus IID 803; type: cell-based; settings: IID803; Staphylococcus aureus IID 803, Gram +; read-out: Minimum inhibitory concentration (MIC)
Procedure: as §1

[7] = tested on: Serratia marcescens IAM 1184; assay: Antibacterial activity (MIC), Serratia marcescens IAM 1184; type: cell-based; settings: Serratia marcescens, IAM1184, Serratia marcescens IAM 1184, Gram -; read-out: Minimum inhibitory concentration (MIC)
Procedure: as §1

[8] = tested on: Acinetobacter calcoaceticus AC 54; assay: Antibacterial activity (MIC), Acinetobacter calcoaceticus AC 54; type: cell-based; settings: AC54; Acinetobacter calcoaceticus AC 54, Gram -; read-out: Minimum inhibitory concentration (MIC)
Procedure: as §1

[9] = tested on: Micrococcus luteus ATCC 9341; assay: Antibacterial activity (MIC), Micrococcus luteus ATCC 9341; type: cell-based; settings: ATCC9341; Micrococcus luteus ATCC 9341, Gram +; read-out: Minimum inhibitory concentration (MIC)
Procedure: as §1

[10] = tested on: Streptococcus faecalis IID 682; assay: Antibacterial activity (MIC), Streptococcus faecalis IID 682; type: cell-based; settings: Enterococcus faecalis, IID682, Streptococcus faecalis IID 682, Gram +; read-out: Minimum inhibitory concentration (MIC)
Procedure: as §1

[11] = tested on: Bacillus subtilis ATCC 6633; assay: Antibacterial activity (MIC), Bacillus subtilis ATCC 6633; type: cell-based; settings: Bacillus subtilis, ATCC6633, Bacillus subtilis ATCC 6633, Gram +; read-out: Minimum inhibitory concentration (MIC)
Procedure: as §1

[12] = tested on: Pseudomonas aeruginosa IFO 3445; assay: Antibacterial activity (MIC), P. aeruginosa IFO 3445; type: cell-based; settings: Pseudomonas aeruginosa, IFO3445, Pseudomonas aeruginosa IFO 3445, Gram -; read-out: Minimum inhibitory concentration (MIC)
Procedure: as §1

[13] = tested on: Pseudomonas aeruginosa E-2; assay: Antibacterial activity (MIC), P. aeruginosa E-2; type: cell-based; settings: E2; Pseudomonas aeruginosa E-2, Gram -; read-out: Minimum inhibitory concentration (MIC)
Procedure: as §1

[14] = tested on: Salmonella typhimurium IID 971; assay: Antibacterial activity (MIC), Salmonella typhimurium IID 971; type: cell-based; settings: Salmonella enterica; Salmonella typhimurium IID 971, Gram -; read-out: Minimum inhibitory concentration (MIC)
Procedure: as §1

[15] = tested on: Escherichia coli NIHJ JC-2; assay: Antibacterial activity (MIC), E. coli NIHJ JC-2; type: cell-based; settings: NIHJJC2; Escherichia coli NIHJ JC-2, Gram -; read-out: Minimum inhibitory concentration (MIC)
Procedure: as §1

[16] = tested on: Staphylococcus epidermidis IAM-1296; assay: Antibacterial activity (MIC), S. epidermidis IAM-1296; type: cell-based; settings: Staphylococcus epidermidis, IAM1296, Staphylococcus epidermidis IAM-1296, Gram +; read-out: Minimum inhibitory concentration (MIC)
Procedure: as §1

[17] = tested on: Proteus mirabilis IFO 3849; assay: Antibacterial activity (MIC), Proteus mirabilis IFO 3849; type: cell-based; settings: IFO3849; Proteus mirabilis IFO 3849, Gram -; read-out: Minimum inhibitory concentration (MIC)
Procedure: as §1

[18] = tested on: Staphylococcus aureus FDA 209P JC-1; assay: Antibacterial activity (MIC), S. aureus FDA 209P JC-1; type: cell-based; settings: FDA209P; Staphylococcus aureus FDA 209P JC-1, Gram +; read-out: Minimum inhibitory concentration (MIC)
Procedure: as §1

Escherichia coli KC-14 = assay: Antibacterial activity (MIC), E. coli KC-14; type: cell-based; settings: KC14; Escherichia coli KC-14, Gram -; read-out: Minimum inhibitory concentration (MIC)
Procedure: as §1

Enterobacter cloacae 963 = assay: Antibacterial activity (MIC), Enterobacter cloacae 963; type: cell-based; settings: Enterobacter cloacae, 963, Enterobacter cloacae 963, Gram -; read-out: Minimum inhibitory concentration (MIC)
Procedure: as §1

[19] = tested on: Pseudomonas aeruginosa E-2; assay: Effect on treatment of general infectious disease, P. aeruginosa E-2 (Experiment 3); type: in vivo, ddY male mice infected with Pseudomonas aeruginosa; settings: E2, 168 h, oral, 1 h after i.p. infection, 3.1×10^4 CFU/mouse, survival after one week
Procedure: Pseudomonas aeruginosa E-2 (3.1×10^4 CFU/mouse)
as §2, §3

[20] = tested on: Klebsiella pneumoniae PCI-602; assay: Antibacterial activity (MIC), Klebsiella pneumoniae PCI-602; type: cell-based; settings: Klebsiella pneumoniae, PCI602, read-out: Minimum inhibitory concentration (MIC)
Procedure: as §1

[21] = tested on: Citrobacter freundii NIHJ 10018-68; assay: Antibacterial activity (MIC), Citrobacter freundii NIHJ 10018-68; type: cell-based; settings: Citrobacter freundii, NIHJ10018, Citrobacter freundii NIHJ 10018-68, Gram -; read-out: Minimum inhibitory concentration (MIC)
Procedure: as §1

Shigella sonnei EW-33 = assay: Antibacterial activity (MIC), Shigella sonnei EW-33; type: cell-based; settings: Shigella sonnei, EW33, Shigella sonnei EW-33, Gram -; read-out: Minimum inhibitory concentration (MIC)
Procedure: as §1

CN1CCN(c2c(F)cc3c(=O)c(C(=O)O)c4scc5n4c3c2OC5)CC1 [Compound (Y), 9,1-Epoxymethano-7-fluoro-8-(4-methyl-1-piperazinyl)-5-oxo-5H-thiazolo[3,2-a]quinoline-4-carboxylic acid hydrochloride, reference compound] gave an MIC [1] of 0.05 to 0.39 µg/mL, an MIC50 ([1]; minimum concentration for inhibiting growth of the strains by 50%) of 0.1 µg/mL and an MIC90 ([1]; minimum concentration for inhibiting growth of the strains by 90%) of 0.2 µg/mL. The MIC [2] was 0.1 µg/mL, the MIC [3] was 0.78 µg/mL and the MIC [4] was 0.1 µg/mL. For the same compound, the ED50 [5] was 11.7 mg/kg, the MIC (Proteus vulgaris OX-19) was 0.05 µg/mL and the MIC [6] was 0.2 µg/mL. For the same compound, the MIC [7] was 0.39 µg/mL, the MIC [8] was 0.2 µg/mL and the MIC [9] was 1.56 µg/mL. The MIC [10] was 0.78 µg/mL, the MIC [11] was 0.1 µg/mL and the MIC [12] was 1.56 µg/mL. For the same compound, the MIC [13] was 0.78 µg/mL, the MIC [14] was 0.05 µg/mL and the MIC [15] was 0.1 µg/mL. The MIC [16] was 0.39 µg/mL, the MIC [17] was 0.2 µg/mL and the MIC [18] was 0.2 µg/mL. The MIC (Escherichia coli KC-14) was 0.1 µg/mL, the MIC (Enterobacter cloacae 963) was 0.1 µg/mL and the ED50 [19] was 11.7 mg/kg. It also gave an MIC [20] of 0.025 µg/mL, an MIC [21] of 0.2 µg/mL and an MIC (Shigella sonnei EW-33) of 0.05 µg/mL.

Reference: US4971967A, “Quinolinecarboxylic acid derivatives, antibacterial compositions and use” (Kanebo Ltd, priority 1989, dated 1990)
